The target in one assay is Cannabinoid receptor 1 (Homo sapiens, UniProt P21554). The assay is classed as functional.
Assay [1] concerns the target Receptor tyrosine-protein kinase erbB-2 (Homo sapiens, UniProt P04626). The assay is classed as functional.
A further assay concerns the target T1, Androgen receptor (Homo sapiens, UniProt P10275).
T1 sequence (P10275 whole entry): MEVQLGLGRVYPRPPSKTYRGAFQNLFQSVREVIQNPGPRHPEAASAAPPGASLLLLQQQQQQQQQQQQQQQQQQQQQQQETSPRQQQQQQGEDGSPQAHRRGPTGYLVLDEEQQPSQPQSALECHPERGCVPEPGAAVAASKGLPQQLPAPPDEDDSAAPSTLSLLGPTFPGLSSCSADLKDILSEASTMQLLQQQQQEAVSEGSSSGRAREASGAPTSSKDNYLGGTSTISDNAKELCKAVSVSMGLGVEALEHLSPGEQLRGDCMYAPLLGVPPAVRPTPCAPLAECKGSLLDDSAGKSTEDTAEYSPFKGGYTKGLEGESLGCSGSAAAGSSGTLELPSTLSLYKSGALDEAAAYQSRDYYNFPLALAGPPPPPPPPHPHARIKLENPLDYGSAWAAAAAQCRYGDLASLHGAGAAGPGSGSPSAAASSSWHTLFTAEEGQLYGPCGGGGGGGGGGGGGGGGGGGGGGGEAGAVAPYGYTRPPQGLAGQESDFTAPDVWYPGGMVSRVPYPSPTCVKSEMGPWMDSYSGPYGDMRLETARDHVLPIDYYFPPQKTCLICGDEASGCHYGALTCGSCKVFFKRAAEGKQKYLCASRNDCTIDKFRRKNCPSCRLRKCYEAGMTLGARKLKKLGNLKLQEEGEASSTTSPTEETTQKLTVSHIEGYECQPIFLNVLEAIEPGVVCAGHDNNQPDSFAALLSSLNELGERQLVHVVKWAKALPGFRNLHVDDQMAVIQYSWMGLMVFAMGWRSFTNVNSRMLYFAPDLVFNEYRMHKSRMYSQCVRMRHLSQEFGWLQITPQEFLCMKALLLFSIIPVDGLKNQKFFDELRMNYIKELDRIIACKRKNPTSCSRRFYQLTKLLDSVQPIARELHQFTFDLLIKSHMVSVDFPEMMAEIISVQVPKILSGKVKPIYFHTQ

The target in assay [2] is T2, Muscarinic acetylcholine receptor M1 (Homo sapiens, UniProt P11229).
T2 sequence (P11229 whole entry): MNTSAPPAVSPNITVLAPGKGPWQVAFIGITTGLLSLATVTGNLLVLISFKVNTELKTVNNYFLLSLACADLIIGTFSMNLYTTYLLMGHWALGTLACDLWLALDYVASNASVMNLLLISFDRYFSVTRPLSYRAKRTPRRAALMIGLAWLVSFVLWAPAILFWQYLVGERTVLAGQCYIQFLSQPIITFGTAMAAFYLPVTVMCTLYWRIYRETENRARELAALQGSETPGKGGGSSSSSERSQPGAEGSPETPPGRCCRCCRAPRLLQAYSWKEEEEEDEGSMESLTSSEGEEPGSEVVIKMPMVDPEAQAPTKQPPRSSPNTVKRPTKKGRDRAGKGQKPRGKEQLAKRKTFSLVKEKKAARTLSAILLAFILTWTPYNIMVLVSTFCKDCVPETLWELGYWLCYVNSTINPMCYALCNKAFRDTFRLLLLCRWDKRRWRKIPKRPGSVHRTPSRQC
It is filed as functional, cell-based.

Assay [3] has as its target T3, D(1A) dopamine receptor (Homo sapiens, UniProt P21728).
In assay [4] the target is Vascular endothelial growth factor receptor 2 (Homo sapiens, UniProt P35968). The assay is classed as functional.
Vascular endothelial growth factor receptor 2, sequence (P35968 whole entry): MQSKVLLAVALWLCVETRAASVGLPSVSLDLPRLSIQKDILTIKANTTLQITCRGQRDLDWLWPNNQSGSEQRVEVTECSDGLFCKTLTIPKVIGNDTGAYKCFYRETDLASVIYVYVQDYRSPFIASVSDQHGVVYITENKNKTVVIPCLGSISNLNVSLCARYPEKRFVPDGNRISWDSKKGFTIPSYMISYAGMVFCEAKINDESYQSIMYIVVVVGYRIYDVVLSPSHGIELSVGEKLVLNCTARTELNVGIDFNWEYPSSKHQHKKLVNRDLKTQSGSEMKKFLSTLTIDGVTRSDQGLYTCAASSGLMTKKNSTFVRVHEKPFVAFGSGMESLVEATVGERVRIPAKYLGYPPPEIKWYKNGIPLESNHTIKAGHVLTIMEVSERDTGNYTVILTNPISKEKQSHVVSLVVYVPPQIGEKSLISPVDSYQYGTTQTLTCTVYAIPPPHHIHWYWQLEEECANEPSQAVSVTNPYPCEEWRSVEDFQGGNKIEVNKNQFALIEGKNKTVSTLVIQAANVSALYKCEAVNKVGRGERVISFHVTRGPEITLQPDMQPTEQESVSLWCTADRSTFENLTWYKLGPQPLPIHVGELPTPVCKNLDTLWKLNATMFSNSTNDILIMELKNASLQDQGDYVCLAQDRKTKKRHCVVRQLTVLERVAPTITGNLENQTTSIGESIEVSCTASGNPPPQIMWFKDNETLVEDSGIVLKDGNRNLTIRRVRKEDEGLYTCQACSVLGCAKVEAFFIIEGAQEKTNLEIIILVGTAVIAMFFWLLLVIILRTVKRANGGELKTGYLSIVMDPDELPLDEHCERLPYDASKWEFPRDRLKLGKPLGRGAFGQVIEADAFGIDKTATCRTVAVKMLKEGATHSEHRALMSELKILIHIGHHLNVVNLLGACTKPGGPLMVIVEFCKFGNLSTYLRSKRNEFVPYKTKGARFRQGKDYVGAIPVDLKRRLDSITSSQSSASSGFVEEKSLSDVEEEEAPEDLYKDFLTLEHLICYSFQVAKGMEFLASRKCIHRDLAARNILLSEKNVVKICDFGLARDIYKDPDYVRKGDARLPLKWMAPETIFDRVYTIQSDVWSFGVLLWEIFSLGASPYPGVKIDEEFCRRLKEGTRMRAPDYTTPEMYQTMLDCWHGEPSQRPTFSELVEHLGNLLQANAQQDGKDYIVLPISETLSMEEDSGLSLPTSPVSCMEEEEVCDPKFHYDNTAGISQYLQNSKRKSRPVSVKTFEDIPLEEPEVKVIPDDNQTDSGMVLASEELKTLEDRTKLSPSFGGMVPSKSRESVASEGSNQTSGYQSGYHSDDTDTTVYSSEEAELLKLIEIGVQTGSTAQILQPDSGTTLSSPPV
The target of assay [5] is Prostaglandin G/H synthase 1 (Homo sapiens, UniProt P23219). It is filed as functional.
Prostaglandin G/H synthase 1, sequence (P23219 whole entry): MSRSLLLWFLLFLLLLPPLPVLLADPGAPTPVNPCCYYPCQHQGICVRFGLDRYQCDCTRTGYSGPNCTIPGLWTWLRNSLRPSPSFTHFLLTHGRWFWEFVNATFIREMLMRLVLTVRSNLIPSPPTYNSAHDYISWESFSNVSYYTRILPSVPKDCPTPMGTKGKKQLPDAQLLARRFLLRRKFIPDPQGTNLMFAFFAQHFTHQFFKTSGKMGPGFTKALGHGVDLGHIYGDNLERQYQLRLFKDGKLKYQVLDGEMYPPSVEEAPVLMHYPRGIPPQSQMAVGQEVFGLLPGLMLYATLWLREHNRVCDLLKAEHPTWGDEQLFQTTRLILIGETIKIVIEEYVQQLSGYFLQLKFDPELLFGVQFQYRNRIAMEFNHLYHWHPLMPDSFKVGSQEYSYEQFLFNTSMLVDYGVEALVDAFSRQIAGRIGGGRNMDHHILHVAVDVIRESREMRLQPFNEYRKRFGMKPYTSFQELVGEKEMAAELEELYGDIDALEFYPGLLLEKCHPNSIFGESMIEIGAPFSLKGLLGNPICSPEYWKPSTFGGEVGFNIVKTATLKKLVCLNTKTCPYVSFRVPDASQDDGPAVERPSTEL
The target in assay [6] is T4, Thromboxane A2 receptor (Homo sapiens, UniProt P21731).
T4 sequence (P21731 whole entry): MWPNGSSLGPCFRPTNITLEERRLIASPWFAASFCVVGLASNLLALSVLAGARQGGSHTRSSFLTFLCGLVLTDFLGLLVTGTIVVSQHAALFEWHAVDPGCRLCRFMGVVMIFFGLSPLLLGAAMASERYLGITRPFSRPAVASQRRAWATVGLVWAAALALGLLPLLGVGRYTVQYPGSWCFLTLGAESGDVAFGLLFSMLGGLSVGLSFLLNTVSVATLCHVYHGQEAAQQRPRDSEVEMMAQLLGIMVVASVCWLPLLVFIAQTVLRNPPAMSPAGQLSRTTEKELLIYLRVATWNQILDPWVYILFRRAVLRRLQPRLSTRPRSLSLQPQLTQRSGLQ
The assay is classed as functional, cell-based.

The target of assay [7] is Voltage-dependent L-type calcium channel subunit alpha-1C (Homo sapiens, UniProt Q13936). It is filed as functional, cell-based.
Assay [8] concerns the target Gamma-aminobutyric acid receptor subunit alpha-1/alpha-2/beta-2/gamma-2 (Homo sapiens, UniProt P14867+P47870+P18507+P47869). The assay is classed as functional, cell-based.
The target in assay [9] is T4, Thromboxane A2 receptor. It is filed as functional.
Assay [10] has as its target T3, D(1A) dopamine receptor. This is another data set of the same source.
Further: assay procedure not described here.

T3 sequence (P21728 whole entry): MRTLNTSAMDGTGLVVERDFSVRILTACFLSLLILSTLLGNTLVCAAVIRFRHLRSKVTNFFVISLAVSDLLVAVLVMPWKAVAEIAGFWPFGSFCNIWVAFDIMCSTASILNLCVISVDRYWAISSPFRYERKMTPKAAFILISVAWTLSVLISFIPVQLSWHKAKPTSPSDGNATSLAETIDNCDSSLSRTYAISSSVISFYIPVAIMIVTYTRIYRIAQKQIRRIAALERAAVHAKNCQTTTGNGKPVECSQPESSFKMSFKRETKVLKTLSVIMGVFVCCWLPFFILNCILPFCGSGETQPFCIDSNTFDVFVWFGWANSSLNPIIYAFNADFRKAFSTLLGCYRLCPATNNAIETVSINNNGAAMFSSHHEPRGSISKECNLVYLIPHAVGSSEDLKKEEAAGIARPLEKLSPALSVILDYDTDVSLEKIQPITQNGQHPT
Gamma-aminobutyric acid receptor subunit alpha-1/alpha-2/beta-2/gamma-2, sequence (P14867 whole entry): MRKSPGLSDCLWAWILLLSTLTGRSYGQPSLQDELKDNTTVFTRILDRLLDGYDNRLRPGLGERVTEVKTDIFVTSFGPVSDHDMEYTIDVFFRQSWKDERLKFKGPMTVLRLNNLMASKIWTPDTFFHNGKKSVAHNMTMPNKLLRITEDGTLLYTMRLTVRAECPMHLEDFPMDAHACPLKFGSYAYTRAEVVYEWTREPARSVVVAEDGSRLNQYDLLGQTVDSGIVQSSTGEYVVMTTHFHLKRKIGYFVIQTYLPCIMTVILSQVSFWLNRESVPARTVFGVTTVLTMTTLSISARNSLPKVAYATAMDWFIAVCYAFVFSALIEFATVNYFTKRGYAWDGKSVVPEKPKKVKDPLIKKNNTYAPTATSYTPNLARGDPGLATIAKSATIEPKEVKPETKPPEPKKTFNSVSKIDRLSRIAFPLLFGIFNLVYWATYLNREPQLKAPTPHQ
Gamma-aminobutyric acid receptor subunit alpha-1/alpha-2/beta-2/gamma-2, sequence (P47870 whole entry): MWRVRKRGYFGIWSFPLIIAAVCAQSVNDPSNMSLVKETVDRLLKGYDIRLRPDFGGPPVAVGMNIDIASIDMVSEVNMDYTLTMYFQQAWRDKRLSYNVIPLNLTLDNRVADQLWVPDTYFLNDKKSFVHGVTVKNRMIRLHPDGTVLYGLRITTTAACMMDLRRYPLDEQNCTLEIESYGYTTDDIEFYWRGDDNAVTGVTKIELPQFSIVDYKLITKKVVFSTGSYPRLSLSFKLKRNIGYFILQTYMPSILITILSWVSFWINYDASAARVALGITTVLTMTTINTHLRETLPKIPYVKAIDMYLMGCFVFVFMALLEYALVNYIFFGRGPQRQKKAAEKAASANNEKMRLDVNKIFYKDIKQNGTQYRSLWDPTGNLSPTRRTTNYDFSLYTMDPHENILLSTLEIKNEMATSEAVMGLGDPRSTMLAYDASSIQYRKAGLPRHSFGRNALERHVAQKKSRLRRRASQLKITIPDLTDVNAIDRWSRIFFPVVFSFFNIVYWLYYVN
Gamma-aminobutyric acid receptor subunit alpha-1/alpha-2/beta-2/gamma-2, sequence (P18507 whole entry): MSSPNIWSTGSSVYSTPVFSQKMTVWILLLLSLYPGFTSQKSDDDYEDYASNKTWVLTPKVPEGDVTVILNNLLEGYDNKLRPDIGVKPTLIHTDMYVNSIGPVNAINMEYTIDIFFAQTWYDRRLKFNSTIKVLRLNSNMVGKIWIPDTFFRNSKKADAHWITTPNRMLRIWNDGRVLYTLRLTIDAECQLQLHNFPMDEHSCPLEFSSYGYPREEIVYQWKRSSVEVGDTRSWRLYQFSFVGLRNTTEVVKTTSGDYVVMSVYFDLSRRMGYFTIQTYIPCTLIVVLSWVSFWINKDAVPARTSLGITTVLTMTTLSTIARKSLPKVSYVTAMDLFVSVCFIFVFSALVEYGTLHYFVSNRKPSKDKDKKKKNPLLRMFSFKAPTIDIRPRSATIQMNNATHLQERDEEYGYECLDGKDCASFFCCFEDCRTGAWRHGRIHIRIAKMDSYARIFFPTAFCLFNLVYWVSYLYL
Gamma-aminobutyric acid receptor subunit alpha-1/alpha-2/beta-2/gamma-2, sequence (P47869 whole entry): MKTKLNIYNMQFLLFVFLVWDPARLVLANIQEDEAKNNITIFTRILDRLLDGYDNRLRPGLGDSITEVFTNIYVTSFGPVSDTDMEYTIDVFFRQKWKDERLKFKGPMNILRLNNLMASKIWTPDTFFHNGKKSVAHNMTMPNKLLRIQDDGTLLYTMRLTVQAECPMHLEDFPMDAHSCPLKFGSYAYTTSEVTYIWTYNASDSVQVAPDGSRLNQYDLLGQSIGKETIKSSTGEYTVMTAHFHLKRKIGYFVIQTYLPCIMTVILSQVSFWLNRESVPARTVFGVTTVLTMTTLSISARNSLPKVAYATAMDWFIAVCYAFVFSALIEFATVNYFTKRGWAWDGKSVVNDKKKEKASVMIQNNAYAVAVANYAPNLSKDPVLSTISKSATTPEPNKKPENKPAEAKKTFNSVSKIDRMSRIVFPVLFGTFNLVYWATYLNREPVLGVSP
Cannabinoid receptor 1, sequence (P21554 whole entry): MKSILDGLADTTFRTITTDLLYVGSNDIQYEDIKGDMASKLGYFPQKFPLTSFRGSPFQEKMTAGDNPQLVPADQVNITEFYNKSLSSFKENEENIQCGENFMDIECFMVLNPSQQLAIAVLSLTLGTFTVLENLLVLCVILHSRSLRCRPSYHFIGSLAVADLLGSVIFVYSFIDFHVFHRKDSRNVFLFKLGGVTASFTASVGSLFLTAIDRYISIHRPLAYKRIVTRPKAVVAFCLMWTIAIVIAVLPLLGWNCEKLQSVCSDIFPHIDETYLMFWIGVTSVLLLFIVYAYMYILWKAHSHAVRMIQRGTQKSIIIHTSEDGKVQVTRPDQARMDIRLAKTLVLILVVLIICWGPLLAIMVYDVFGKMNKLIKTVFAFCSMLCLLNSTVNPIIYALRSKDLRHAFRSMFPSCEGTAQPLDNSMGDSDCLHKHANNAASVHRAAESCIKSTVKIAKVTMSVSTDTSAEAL

On Cannabinoid receptor 1, `Cc1c(OCC(F)(F)F)ccnc1C[S+]([O-])c1nc2ccccc2[nH]1` (configuration not stated) [LANSOPRAZOLE] returned an AC50 greater than 10 µM.
`CC(CC1c2ccccc2CCc2ccccc21)CN(C)C` (configuration not stated) [BUTRIPTYLINE] came in with an AC50 in [1] greater than 30 µM.
On to `CO[C@]12C[C@@H](COC(=O)c3cncc(Br)c3)CN(C)[C@@H]1Cc1cn(C)c3cccc2c13` [NICERGOLINE], for which the AC50 at Androgen receptor is greater than 30 µM; in [2], greater than 30 µM; on D(1A) dopamine receptor [3] it was 0.393 µM; in assay [4], greater than 30 µM; in assay [5], greater than 30 µM; at Thromboxane A2 receptor [6] it was 7.6 µM.
For THIMEROSAL, the concentration at half-maximal activity (AC50) was greater than 50 µM in assay [7], greater than 30 µM in assay [8], greater than 30 µM at Thromboxane A2 receptor [9] and 10 µM at D(1A) dopamine receptor [10].

Values taken from ChEMBL document CHEMBL5291721, “A preclinical secondary pharmacology resource illuminates target-adverse drug reaction associations of marketed drugs” (Nat Commun, 2023).
